Assay results published in patent publication US7205304B2, “Sulfonyl-Derivatives as novel inhibitors of histone deacetylase” (Janssen Pharmaceutica N.V., priority 2002, dated 2007).
Values after ≈ are worked out from the molar mass of the structure shown.

Columns and labels:
[1] = target: histone deacetylase (HeLa nuclear extracts); experiment: In vitro assay for inhibition of histone deacetylase; assay type: biochemical; details: [3H]acetylated histone H4 peptide substrate
Experimental: The in vitro assay for inhibition of histone deacetylase (see example C.1) measures the inhibition of HDAC enzymatic activity obtained with the compounds of formula (I).
HeLa nuclear extracts (supplier: Biomol) were incubated at 60 μg/ml with 2×10^−8 M of radiolabeled peptide substrate. As a substrate for measuring HDAC activity a synthetic peptide, i.e. the amino acids 14–21 of histone H4, was used. The substrate is biotinylated at the NH2-terminal part with a 6-aminohexanoic acid spacer, and is protected at the COOH-terminal part by an amide group and specifically [^3H]acetylated at lysine 16. The substrate, biotin-(6-aminohexanoic)Gly-Ala-([^3H]-acetyl-Lys-Arg-His-Arg-Lys-Val-NH2), was added in a buffer containing 25 mM Hepes, 1 M sucrose, 0.1 mg/ml BSA and 0.01% Triton X-100 at pH 7.4. After 30 min the deacetylation reaction was terminated by the addition of HCl and acetic acid. (final concentration 0.035 mM and 3.8 mM respectively). After stopping the reaction, the free ^3H-acetate was extracted with ethylacetate. After mixing and centrifugation, the radioactivity in an aliquot of the upper (organic) phase was counted in a β-counter.
For each experiment, controls (containing HeLa nuclear extract and DMSO without compound), a blank incubation (containing DMSO but no HeLa nuclear extract or compound) and samples (containing compound dissolved in DMSO and HeLa nuclear extract) were run in parallel. In first instance, compounds were tested at a concentration of 10^−5M. […] In each test the blank value was substracted from both the control and the sample values. The control sample represented 100% of substrate deactylation. For each sample the radioactivity was expressed as a percentage of the mean value of the controls. […] Herein the effects of test compounds are expressed as pIC50 (the negative log value of the IC50-value).

[2] = Kinetic solubility in aqueous media (nephelometry); assay type: physicochemical; details: phosphate citrate buffer, pH 7.4, aqueous buffer, kinetic from dmso stock, phosphate citrate buffer pH 7.4, turbidity of three dilution steps; read-out: Solubility Score
Experimental: Kinetic solubility in aqueous media measures the ability of a compound to stay in aqueous solution upon dilution (see example C.3).
DMSO-stock solutions are diluted with a single aqueous buffer solvent in 3 consecutive steps. For every dilution turbidity is measured with a nephelometer.
In the first dilution step, 10 μl of a concentrated stock-solution of the active compound, solubilized in DMSO (5 mM), was added to 100 μl phosphate citrate buffer pH 7.4 and mixed. In the second dilution step, an aliquot (20 μl) of the first dilution step was further dispensed in 100 μl phosphate citrate buffer pH 7.4 and mixed. Finally, in the third dilution step, a sample (20 μl) of the second dilution step was further diluted in 100 μl phosphate citrate buffer pH 7.4 and mixed. All dilutions were performed in 96-well plates. Immediately after the last dilution step the turbidity of the three consecutive dilution steps were measured with a nephelometer. Dilution was done in triplicate for each compound to exclude occasional errors. Based on the turbidity measurements a ranking is performed into 3 classes. Compounds with high solubility obtained a score of 3 and for this compounds the first dilution is clear. Compounds with medium solubility obtained a score of 2. For these compounds the first dilution is unclear and the second dilution is clear. […] The solubility of 112 compounds was measured.

[3] = tested on: A2780 ovarian carcinoma cells; experiment: Antiproliferative activity on A2780 cells (MTT); assay type: cell-based, human; details: Homo sapiens, A2780, 96 h, four days of incubation, read-out: Cellular activity pIC50 (converted)
Experimental: Cellular activity of the compounds of formula (I) was determined on A2780 tumour cells using a colorimetric assay for cell toxicity or survival (Mosmann Tim, Journal of Immunological Methods 65: 55–63, 1983)(see example C.2).
All compounds tested were dissolved in DMSO and further dilutions were made in culture medium. Final DMSO concentrations never exceeded 0.1% (v/v) in cell proliferation assays. Controls contained A2780 cells and DMSO without compound and blanks contained DMSO but no cells. MTT was dissolved at 5 mg/ml in PBS. A glycine buffer comprised of 0.1 M glycine and 0.1 M NaCl buffered to pH 10.5 with NaOH (1 N) was prepared (all reagents were from Merck).
The human A2780 ovarian carcinoma cells (a kind gift from Dr. T. C. Hamilton [Fox Chase Cancer Centre, Pennsylvania, USA]) were cultured in RPMI 1640 medium supplemented with 2 mM L-glutamine, 50 μg/ml gentamicin and 10% fetal calf serum. Cells were routinely kept as monolayer cultures at 37° C. in a humidified 5% CO2 atmosphere. Cells were passaged once a week using a trypsin/EDTA solution at a split ratio of 1:40. All media and supplements were obtained from Life Technologies. Cells were free of mycoplasma contamination as determined using the Gen-Probe Mycoplasma Tissue Culture kit (supplier: BioMérieux).
Cells were seeded in NUNC™ 96-well culture plates (Supplier: Life Technologies) and allowed to adhere to the plastic overnight. Densities used for plating were 1500 cells per well in a total volume of 200 μl medium. After cell adhesion to the plates, medium was changed and drugs and/or solvents were added to a final volume of 200 μl. Following four days of incubation, medium was replaced by 200 μl fresh medium and cell density and viability was assessed using an MTT-based assay. To each well, 25 μl MTT solution was added and the cells were further incubated for 2 hours at 37° C. The medium was then carefully aspirated and the blue MTT-formazan product was solubilized by addition of 25 μl glycine buffer followed by 100 μl of DMSO. […] Within an experiment, the results for each experimental condition are the mean of 3 replicate wells. For initial screening purposes, compounds were tested at a single fixed concentration of 10^−6 M. For active compounds, the experiments were repeated to establish full concentration-response curves. For each experiment, controls (containing no drug) and a blank incubation (containing no cells or drugs) were run in parallel. The blank value was subtracted from all control and sample values. For each sample, the mean value for cell growth (in absorbance units) was expressed as a percentage of the mean value for cell growth of the control. […] Herein the effects of test compounds are expressed as pIC50 (the negative log value of the IC50-value).

SMILES | Enzyme activity pIC50 [1] | solubility [2] | IC50 [3]
Cc1cccc(C)c1-c1ccc(S(=O)(=O)N2CCN(c3ncc(C(=O)NO)cn3)CC2)cc1 [Compound 133] | 7.869 | 75.8 to 454 µM (≈ 35.4 to 213 µg/mL) | 1260 nM
O=C(NO)c1cnc(N2CCN(S(=O)(=O)c3ccc(-c4ccccc4C(F)(F)F)cc3)CC2)nc1 [Compound 110] | 7.713 | 75.8 to 454 µM (≈ 38.5 to 231 µg/mL) | 445 nM
O=C(NO)c1ccc(N2CCN(S(=O)(=O)c3cccc4ccccc34)CC2)cc1 [Compound 81] | 6.873 | < 75.8 µM | 1300 nM
O=C(NO)c1ccc(N2CCN(S(=O)(=O)c3cccc(-c4ccccc4)c3)CC2)cc1 [Compound 83] | 6.157 | < 75.8 µM | 1300 nM
O=C(NO)c1cnc(N2CCN(S(=O)(=O)c3ccc(-c4ccoc4)cc3)CC2)nc1 [Compound 100] | 8.171 | 75.8 to 454 µM (≈ 32.6 to 195 µg/mL) | 57.9 nM
O=C(NO)c1ccc(N2CCN(S(=O)(=O)c3ccc(Cl)s3)CC2)cc1 [Compound 66] | 6.197 | < 75.8 µM | 1330 nM
CN(CCO)Cc1sccc1-c1ccc(S(=O)(=O)N2CCN(c3ncc(C(=O)NO)cn3)CC2)cc1 [Compound 151] | 8.152 | > 454 µM | 137 nM
O=C(NO)c1cnc(N2CCN(S(=O)(=O)c3ccc4cccnc4c3)CC2)nc1 [Compound 91] | 7.688 | > 454 µM | 783 nM
Cc1ccc(S(=O)(=O)N2CCN(c3ccc(C(=O)NO)cc3)CC2)cc1 [Compound 79] | 6.238 | < 75.8 µM | 4290 nM
CN(C)c1cccc2c(S(=O)(=O)N3CCN(c4ccc(C(=O)NO)cc4)CC3)cccc12 [Compound 72] | 6.346 | < 75.8 µM | 942 nM
CN(C)CCN(C)Cc1ccccc1-c1ccc(S(=O)(=O)N2CCN(c3ncc(C(=O)NO)cn3)CC2)cc1 [Compound 159] | 8.61 | > 454 µM | 95.9 nM
O=C(NO)c1cnc(N2CCN(S(=O)(=O)c3ccc(-c4cccc5c4oc4ccccc45)cc3)CC2)nc1 [Compound 131] | 6.058 | 75.8 to 454 µM (≈ 40.1 to 241 µg/mL) | 546 nM
COc1cncc(-c2ccc(S(=O)(=O)N3CCN(c4ncc(C(=O)NO)cn4)CC3)cc2)c1 [Compound 138] | 7.545 | 75.8 to 454 µM (≈ 35.7 to 214 µg/mL) | 249 nM
O=C(NO)c1ccc(N2CCN(S(=O)(=O)c3ccc(-c4ccccn4)s3)CC2)cc1 [Compound 68] | 6.908 | < 75.8 µM | 1230 nM
Cn1nc(-c2ccc(S(=O)(=O)N3CCN(c4ncc(C(=O)NO)cn4)CC3)s2)cc1C(F)(F)F [Compound 93] | 7.464 | > 454 µM | 455 nM
O=C(NO)c1cnc(N2CCN(S(=O)(=O)c3ccc(-c4ccccc4Cl)cc3)CC2)nc1 [Compound 108] | 8.117 | < 75.8 µM | 209 nM

SMILES | Enzyme activity pIC50 [1] | solubility [2] | IC50 [3]
COC1CCN(Cc2sccc2-c2ccc(S(=O)(=O)N3CCN(c4ncc(C(=O)NO)cn4)CC3)cc2)CC1 [Compound 149] | 8.175 | 75.8 to 454 µM (≈ 43.4 to 260 µg/mL) | 144 nM
CN(C)CCCOc1ccccc1-c1ccc(S(=O)(=O)N2CCN(c3ncc(C(=O)NO)cn3)CC2)cc1 [Compound 154] | 8.869 | < 75.8 µM | 64 nM
O=C(NO)c1cnc(N2C[C@@H]3C[C@H]2CN3S(=O)(=O)c2ccc3ccccc3c2)nc1 [Compound 114] | 7.428 | > 454 µM | 750 nM
O=C(CS)Nc1ccc(N2CCN(S(=O)(=O)c3ccc4ccccc4c3)CC2)cc1 [Compound 19] | <5 | < 75.8 µM | > 10000 nM
O=C(NO)c1cnc(N2CCN(S(=O)(=O)c3ccc(-c4ccsc4CN(CCO)CCO)cc3)CC2)nc1 [Compound 145] | 8.06 | < 75.8 µM | 279 nM
O=C(NO)c1ccc(N2CCN(S(=O)(=O)CCc3cccc4ccccc34)CC2)cc1 [Compound 62] | 5.409 | < 75.8 µM | 384 nM
O=C(NO)c1cnc(N2CCN(S(=O)(=O)c3ccc(-c4cccc(CCN5CCCC5)c4)cc3)CC2)nc1 [Compound 127] | 8.482 | > 454 µM | 68.9 nM
COc1ccc(-c2ccc(S(=O)(=O)N3CCN(c4ncc(C(=O)NO)cn4)CC3)cc2)cc1 [Compound 175] | 7.691 | < 75.8 µM | 68.9 nM
O=C(NO)c1ccc(N2CCN(S(=O)(=O)c3cccs3)CC2)cc1 [Compound 70] | 5.914 | > 454 µM | 4060 nM
O=C(NO)c1ccc(N2CCN(S(=O)(=O)c3ccc(Cl)cc3)CC2)cc1 [Compound 76] | 6.227 | < 75.8 µM | 1360 nM
NCCNC(=O)c1ccc(N2CCN(S(=O)(=O)c3ccc4ccccc4c3)CC2)cc1 [Compound 18] | <5 | < 75.8 µM | 4080 nM
O=C(NO)c1cnc(N2CCN(S(=O)(=O)c3ccc(-c4ccccc4)cc3)CC2)nc1 [Compound 128] | 8.078 | 75.8 to 454 µM (≈ 33.3 to 200 µg/mL) | 81.3 nM
Cc1ccccc1-c1ccc(S(=O)(=O)N2CCN(c3ncc(C(=O)NO)cn3)CC2)cc1 [Compound 106] | 7.797 | 75.8 to 454 µM (≈ 34.4 to 206 µg/mL) | 258 nM
O=C(NO)c1cnc(N2CCN(S(=O)(=O)c3ccc(-c4ccc(OC(F)(F)F)cc4)cc3)CC2)nc1 [Compound 98] | 7.054 | 75.8 to 454 µM (≈ 39.7 to 238 µg/mL) | 356 nM
Cc1noc(C)c1-c1ccc(S(=O)(=O)N2CCN(c3ncc(C(=O)NO)cn3)CC2)cc1 [Compound 112] | 7.54 | > 454 µM | 330 nM
